Results reported in article PMC12647892, “State-selective small molecule degraders that preferentially remove aggregates and oligomers” (Nature Communications, 2025).

Molecular target: T1, TRIM21 PRYSPRY (Homo sapiens, UniProt P19474)
T1 construct: PRYSPRY domain (TRIM21his-PS)
Assay: crystal structure; fluorescence polarisation, tryptophan quenching, nanoDSF
Assay type: binding

T1 sequence (P19474 287-465 limits assumed): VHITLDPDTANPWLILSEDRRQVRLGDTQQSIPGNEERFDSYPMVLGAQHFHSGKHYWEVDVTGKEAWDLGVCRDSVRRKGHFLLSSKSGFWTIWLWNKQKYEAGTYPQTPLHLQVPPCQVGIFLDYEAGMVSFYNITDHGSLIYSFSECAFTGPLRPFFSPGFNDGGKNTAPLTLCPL

CNC(=O)[C@H](Cc1ccncc1)NC(=O)[C@@H]1C[C@@H](C2CCCCC2)CN1C(=O)C[C@H](N)c1ccccc1OC [MRC37]
Kd: 400 nM
